Results published in PubChem BioAssay (NCI).
Several values for one entry are separate records, joined by “and”; a condition that tells them apart may be missing. Equal values may be shown once.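 How tested: cells in 96-well plates exposed to compound for 48 hours at five concentrations. GI50 = concentration required for 50% inhibition of growth. TGI denotes the concentration required for complete inhibition of growth.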

Key:
Assay in all cases: NCI tumour cell line growth inhibition, 48 h
[1] = tested on: SR leukemia
[2] = tested on: RPMI-8226 leukemia
[3] = tested on: MOLT-4 leukemia
[4] = tested on: NCI-H226 lung
[5] = tested on: 786-0 renal
[6] = tested on: A549 NSCLC
[7] = tested on: HCC-2998 colon
[8] = tested on: MCF7 breast
[9] = tested on: MDA-MB-435
[10] = tested on: NCI/ADR-RES ovarian

| SMILES | TGI [1] [µM] | GI50 [2] | TGI [2] | GI50 [3] [µM] | TGI [3] | TGI [4] | GI50 [5] | TGI [5] | TGI [6] [µM] | TGI [7] | TGI [8] [µM] | TGI [9] [µM] | TGI [10] [µM] | GI50 [4] [µM] | GI50 [8] [µM] | GI50 [6] [µM] | GI50 [7] [µM] | GI50 [9] [µM] | GI50 [10] [µM] | GI50 [1] [µM] |
| --- | --- | --- | --- | --- | --- | --- | --- | --- | --- | --- | --- | --- | --- | --- | --- | --- | --- | --- | --- | --- |
| COc1cc(C2c3cc4c(cc3[C@@H](NC3CCN(Cc5ccccc5)CC3)C3COC(=O)[C@H]23)OCO4)cc(OC)c1O (some centres undefined) | 0.02 | 0.151 µM and 0.054 µM | 2.82 µM and 0.465 µM | < 0.01 | 0.0129 µM and 0.0258 µM | 0.101 µM and 0.0535 µM | 0.161 µM and 0.0333 µM | 0.668 µM and 0.221 µM | 0.178 | 1.13 µM and 0.427 µM | – | – | – | – | – | – | – | – | – | – |
| CC(NNC(=S)N1CCN(c2ccccn2)CC1)c1nccc2ccccc12 (centres undefined) | – | – | – | – | 10.3 µM | 8.11 µM | – | 13 µM | 13.2 | 14.7 µM | 14.3 | 17 | 12 | – | – | – | – | – | – | – |
| CCC(=O)OCOc1ccc(/C=C2\CCC(CN(C)C)C2=O)cc1 (centres undefined) | 9.25 | – | > 23.3 µM | – | 8.07 µM | 31.8 µM | – | 6.2 µM | 40.3 | 18.5 µM | 10.1 | 10.6 | 6.78 | – | – | – | – | – | – | – |
| COc1ccc(N=NC2=C(O)CCC2=O)cc1 | – | – | – | – | > 100 µM | > 100 µM | – | > 100 µM | > 100 | > 100 µM | – | – | – | – | – | – | – | – | – | – |
| Cc1[nH]nc(C(F)(F)F)c1Cc1sc2c(c1C(=O)N1C[C@](C)(O)CO1)c(=O)n(C)c(=O)n2C(C)C | – | > 100 µM | > 100 µM | > 100 | > 100 µM | > 100 µM | > 100 µM | > 100 µM | > 100 | > 100 µM | > 100 | > 100 | > 100 | > 100 | > 100 | > 100 | > 100 | > 100 | > 100 | – |
| OC1OCC(COc2cc(Cl)c(Cl)cc2Cl)OC1O (centres undefined) | – | – | 77.9 µM | – | > 100 µM | > 100 µM | – | > 100 µM | > 100 | > 100 µM | – | – | – | – | – | – | – | – | – | – |
| C=CC1=C(C)C(/C=c2\[nH]/c(=C/c3[nH]c(CC4NC(=O)C(C)/C4=C\C)c(C)c3CCC(=O)O)c(CC(=O)O)c2C)=NC1=O (centres undefined) | > 100 | – | – | – | > 100 µM | > 100 µM | – | > 100 µM | > 100 | > 100 µM | – | – | – | – | – | – | – | – | – | – |
| CC1(C)CC(=O)C(CC2C(=O)CCCC2=O)C(=O)C1 | > 100 | – | – | – | > 100 µM | > 100 µM | – | > 100 µM | > 100 | > 100 µM | – | – | – | – | – | – | – | – | – | – |
| O=C1c2ccccc2C(=O)N1CC#CCO | > 100 | – | – | – | > 100 µM | > 100 µM | – | > 100 µM | > 100 | – | – | – | – | – | – | – | – | – | – | – |
| NC1CC(=O)c2c(-c3cccs3)sc(-c3cccs3)c21 (centres undefined) | > 100 | 12.3 µM | 49.7 µM | 18.5 | > 100 µM | 48.3 µM | 11.7 µM | > 100 µM | > 100 | – | 44.4 | > 100 | > 100 | 21.6 | 16.9 | 53.2 | – | 38.8 | 29.5 | 7.03 |
| Cc1cc(-c2ccccc2)nc(Nc2cc3ccccc3[nH]2)n1 | > 100 | – | > 100 µM | – | > 100 µM | > 100 µM | – | > 100 µM | > 100 | > 100 µM | – | – | – | – | – | – | – | – | – | – |
| CCN1CCN(C(=O)[C@]23CC[C@@H](C)[C@H](C)[C@@H]2C2=CC[C@@H]4[C@@]5(C)CCC(=O)C(C)(C)[C@@H]5CC[C@@]4(C)[C@]2(C)CC3)CC1 | – | – | – | 0.809 | 1.99 µM | 7.01 µM | 0.814 µM | 1.7 µM | 5.98 | 1.82 µM | 2.03 | 2.3 | 3.24 | 1.78 | 0.891 | 1.47 | 0.922 | 1.05 | 1.08 | – |
| CN1C(=O)N(C)C2C1NC(=S)N2/N=C/C=C/c1ccccc1[N+](=O)[O-] (centres undefined) | – | 2.74 µM | > 100 µM | 0.992 | > 100 µM | > 100 µM | 0.835 µM | > 100 µM | > 100 | > 100 µM | > 100 | 0.997 | > 100 | 17.5 | 0.409 | 2.15 | 2.56 | 0.271 | 2.16 | – |
| O=C(Nc1ccc(Br)c2ccccc12)c1ccc2ccccc2c1O | > 100 | – | – | – | > 100 µM | 6.39 µM | – | 15.9 µM | 11 | 20.9 µM | 25.8 | – | 12.9 | – | – | – | – | – | – | – |
| C=CCC1(CN(C)C)CC/C(=C\c2ccc3c(c2)OCO3)C1=O (centres undefined) | > 100 | – | 59.4 µM | – | 72.8 µM | > 100 µM | – | > 100 µM | > 100 | > 100 µM | – | – | – | – | – | – | – | – | – | – |
| CC(=O)OC1CC2(C)C(=CC1C1SCCS1)CCC1C2CCC2(C)C(OC(C)=O)CCC12 (centres undefined) | > 100 | – | > 100 µM | – | > 100 µM | > 100 µM | – | > 100 µM | > 100 | – | > 100 | > 100 | > 100 | – | – | – | – | – | – | – |
| CC1=C(CCC(C)CO)O[C@H]2C[C@H]3[C@@H]4CC[C@H]5C[C@@H](O)CC[C@]5(C)[C@H]4CC(=O)[C@]3(C)[C@@H]12 (some centres undefined) | 36.4 | – | 13.8 µM | – | 19.2 µM | > 82.2 µM | – | 52.4 µM | 55.7 | – | > 59.4 | 54.8 | 40.6 | – | – | – | – | – | – | – |
| C[C@]12CC[C@H]3[C@@H](CC[C@]4(O)C[C@@H](O)CC[C@]34C=O)[C@@]1(O)CC[C@@H]2C1=CC(=O)OC1 | > 100 | – | – | – | 0.907 µM | 2.69 µM | – | > 100 µM | 0.408 | 7.13 µM | – | 1.83 | 1.92 | – | – | – | – | – | – | – |
| CCC(O)CCCCCCCCCCCCCCC(=O)O (centres undefined) | > 100 | – | > 100 µM | – | > 100 µM | > 100 µM | – | > 100 µM | > 100 | – | – | – | – | – | – | – | – | – | – | – |
| CC12CCC(C1)C(C)(C)C2OC(=O)c1ccccc1N (centres undefined) | 25.8 | – | 16.9 µM | – | 25.1 µM | – | – | 33.5 µM | 29.2 | 27.9 µM | 31.8 | 31.2 | 31.7 | – | – | – | – | – | – | – |
